Patent US10626421B2, “Use of uric acid for culturing bacteria sensitive to oxygen tension” (FONDATION MEDITERRANEE INFECTION, priority 2014, dated 2020)
Where “and” joins values, the source holds several entries; their conditions need not be identical. Identical values can stand only once. Entries after “also recorded” stand apart in the source; their conditions may differ. Like-named read-outs stand apart in the source and are kept apart here.

Key:
[1] = test system: anaerobic bacteria; experiment: Culture on Columbia medium with 5% sheep blood in ambient air; type: cell-based; settings: 1 mg/ml; ambient air or ambient air enriched with 5% of CO2
Method: These geloses inoculated with anaerobic bacteria were incubated either in ambient air or in ambient air enriched with 5% of CO2. […] These tests were conducted with a Columbia medium with 5% sheep blood having the following composition for 1 liter: […]

[2] = test system: Clostridium butirycum; experiment: Liquid hemoculture BD BACTEC Plus Aerobic/F, growth detection by CO2; type: cell-based; settings: Aerobic with UA 400 mg/L
Method: Hemocultures of strict anaerobic bacteria were made, inoculated to 10^5 cfu/mL on a culture medium: BD BACTEC™ Plus Aerobic/F. comprising 25 ml of enriched Trypticase soya broth, with resines (Reference: 442192) at 37° C. in an aerobic atmosphere with uric acid a 400 mg/L and without uric acid and in an anaerobic atmosphere without uric acid. The detection of the growth was ensured by detection of the production of CO2 with the BD BACTEC™ 9000 Series Instrumented Blood Culture Systems device.

[3] = test system: Bacteroides thetaiotaomicron; experiment: Culture in Schaedler 0.2% agar tubes, height of growth; type: cell-based
[4] = test system: Clostridium perfringens; type: cell-based; settings: Aerobic with UA 400 mg/L
[5] = test system: Clostridium tertium; experiment: Liquid hemoculture BD BACTEC Plus Aerobic/F, growth detection by CO2; type: cell-based; settings: Aerobic with UA 400 mg/L
[6] = test system: Bacteroides thetaiotaomicron; type: cell-based
[7] = test system: Helicobacter cinaedi strain DSMZ 5359; experiment: Aerobic culture in Schaedler medium with uric acid; settings: without starch and glucose
[8] = single replicates, listed as UA

SMILES	growth on Columbia medium with 5% sheep blood [1]	Averages (growth time) [2]	Growth time [2, 8]	extent of culture in deoxygenated tube ([3]; 200 μg/ml)	extent of culture in deoxygenated tube ([3]; 500 μg/ml)	growth compared with ascorbic acid ([3]; 500 μg/ml, Schaedler 0.2% agar tubes)	Averages (growth time) [4]	Growth time [4, 8]	Averages (growth time) [5]	Growth time [5, 8]	growth with uric acid alone compared with mixture of uric acid, ascorbic acid and glutathion ([6]; 0.3 g/L of uric acid alone)	culture result with production of hydrogen ([6]; aerobic conditions, 24 hour incubation, 37° C., uric acid alone 0.1, 0.2 or 0.3 g/L, or 0.1 g/L each of ascorbic acid, uric acid, glutathion)	growth with uric acid alone compared with mixture of uric acid, ascorbic acid and glutathion ([6]; uric acid alone at least 0.2 g/L)	time until bacterium established in culture [7] [h]
O=C1O[C@H]([C@@H](O)CO)C(O)=C1O [ascorbic acid, reference compound]	Best growth	–	–	–	–	–	–	–	–	–	–	–	–	–
O=c1[nH]c(=O)c2[nH]c(=O)[nH]c2[nH]1 [uric acid, 7,9-dihydro-1H-purine-2,6,8(3H)-trione]	Best growth	6.667	8 h and 6 h (2×)	practically occurs up to the surface	completely up to the surface; also recorded: growth up to the surface	identical	6	7 h and 5 h and 6 h	4.333	4 h (2×) and 5 h	greater	positive culture	equivalent	≤ 24
